Measured values from the supplement of paper PMC13380429.

Assays:
Details in all cases: 72 h
Caco-2 [1] = test: cell viability relative to DMSO; higher = less toxic
Calu-3 [2] = test: as above
HepG2 [3] = test: as above
U2OS [4] = test: as above
Vero E6 [5] = test: as above
Caco-2 [6] = test: relative viability EC50 (midpoint between 100% and the lowest measured viability); higher = less toxic
Calu-3 [7] = test: as above
HepG2 [8] = test: as above
U2OS [9] = test: as above
Vero E6 [10] = test: as above
Caco-2 [11] = test: drug sensitivity score (DSS) for viability; higher = more toxic; extreme values may be limits of the assay
Calu-3 [12] = test: as above
HepG2 [13] = test: as above
U2OS [14] = test: as above
Vero E6 [15] = test: as above

For Cc1ccc(O)c(N=Nc2ccccc2)n1 [SIB-1757], which cell viability (Caco-2 [1]; 1 nM) is on record?
Its cell viability is 92.4%.

What about the cell viability (Caco-2 [1]; 10 nM) of the same molecule?
Its cell viability is 103%.

And the cell viability (Caco-2 [1]; 100 nM)?
The cell viability was 98.6%.

And the cell viability (Caco-2 [1]; 1000 nM)?
The cell viability was 103%.

What about the cell viability (Caco-2 [1]; 10000 nM) of the same molecule?
Its cell viability is 86.2%.

What about the cell viability (Calu-3 [2]; 1 nM) of the same molecule?
Its cell viability is 99.8%.

And the cell viability (Calu-3 [2]; 10 nM)?
The cell viability was 107%.

And the cell viability (Calu-3 [2]; 100 nM)?
Its cell viability is 111%.

What about the cell viability (Calu-3 [2]; 1000 nM) of the same molecule?
Its cell viability is 99.9%.

What about the cell viability (Calu-3 [2]; 10000 nM) of the same molecule?
Its cell viability is 92.8%.

And the cell viability (HepG2 [3]; 1 nM)?
The cell viability was 108%.

And the cell viability (HepG2 [3]; 10 nM)?
Its cell viability is 110%.

What about the cell viability (HepG2 [3]; 100 nM) of the same molecule?
The cell viability was 107%.

What about the cell viability (HepG2 [3]; 1000 nM) of the same molecule?
The cell viability was 108%.

And the cell viability (HepG2 [3]; 10000 nM)?
Its cell viability is 94.5%.

What about the cell viability (U2OS [4]; 1 nM) of the same molecule?
The cell viability was 104%.

And the cell viability (U2OS [4]; 10 nM)?
The cell viability was 107%.

What about the cell viability (U2OS [4]; 100 nM) of the same molecule?
The cell viability was 102%.

What about the cell viability (U2OS [4]; 1000 nM) of the same molecule?
Its cell viability is 103%.

What about the cell viability (U2OS [4]; 10000 nM) of the same molecule?
Its cell viability is 95.9%.

What about the cell viability (Vero E6 [5]; 1 nM) of the same molecule?
Its cell viability is 98.1%.

What about the cell viability (Vero E6 [5]; 10 nM) of the same molecule?
Its cell viability is 94.6%.

And the cell viability (Vero E6 [5]; 100 nM)?
Its cell viability is 96.7%.

And the cell viability (Vero E6 [5]; 1000 nM)?
Its cell viability is 99%.

And the cell viability (Vero E6 [5]; 10000 nM)?
The cell viability was 92.5%.

What about the “relative viability EC50” value (Caco-2 [6]) of the same molecule?
Its value is greater than 10 µM.

What about the “relative viability EC50” value (Calu-3 [7]) of the same molecule?
The value was greater than 10 µM.

And the “relative viability EC50” value (HepG2 [8])?
Its value is greater than 10 µM.

What about the “relative viability EC50” value (U2OS [9]) of the same molecule?
Its value is greater than 10 µM.

What about the “relative viability EC50” value (Vero E6 [10]) of the same molecule?
The value was greater than 10 µM.

And the drug sensitivity score (Caco-2 [11])?
Its drug sensitivity score is 0.1.

What about the drug sensitivity score (Calu-3 [12]) of the same molecule?
Its drug sensitivity score is 0.

What about the drug sensitivity score (HepG2 [13]) of the same molecule?
The drug sensitivity score was 0.

What about the drug sensitivity score (U2OS [14]) of the same molecule?
The drug sensitivity score was 0.

And the drug sensitivity score (Vero E6 [15])?
The drug sensitivity score was 0.

With CN(C)CC/C=C1/c2ccccc2COc2ccccc21 [doxepin] as the molecule, how does the cell viability (Caco-2 [1]; 1 nM) read?
Its cell viability is 90.4%.

What about the cell viability (Caco-2 [1]; 10 nM) of the same molecule?
The cell viability was 100%.

What about the cell viability (Caco-2 [1]; 100 nM) of the same molecule?
Its cell viability is 97.4%.

And the cell viability (Caco-2 [1]; 1000 nM)?
Its cell viability is 102%.

What about the cell viability (Caco-2 [1]; 10000 nM) of the same molecule?
Its cell viability is 99.6%.

What about the cell viability (Calu-3 [2]; 1 nM) of the same molecule?
Its cell viability is 89%.

And the cell viability (Calu-3 [2]; 10 nM)?
The cell viability was 101%.

And the cell viability (Calu-3 [2]; 100 nM)?
Its cell viability is 97.9%.

What about the cell viability (Calu-3 [2]; 1000 nM) of the same molecule?
The cell viability was 97.7%.

And the cell viability (Calu-3 [2]; 10000 nM)?
The cell viability was 89.9%.

What about the cell viability (HepG2 [3]; 1 nM) of the same molecule?
The cell viability was 103%.

What about the cell viability (HepG2 [3]; 10 nM) of the same molecule?
Its cell viability is 85.4%.

What about the cell viability (HepG2 [3]; 100 nM) of the same molecule?
The cell viability was 115%.

And the cell viability (HepG2 [3]; 1000 nM)?
Its cell viability is 97.4%.

What about the cell viability (HepG2 [3]; 10000 nM) of the same molecule?
The cell viability was 99.3%.

What about the cell viability (U2OS [4]; 1 nM) of the same molecule?
Its cell viability is 94.9%.

And the cell viability (U2OS [4]; 10 nM)?
The cell viability was 101%.

What about the cell viability (U2OS [4]; 100 nM) of the same molecule?
The cell viability was 98.7%.

And the cell viability (U2OS [4]; 1000 nM)?
Its cell viability is 102%.

And the cell viability (U2OS [4]; 10000 nM)?
Its cell viability is 103%.

And the cell viability (Vero E6 [5]; 1 nM)?
The cell viability was 100%.

What about the cell viability (Vero E6 [5]; 10 nM) of the same molecule?
Its cell viability is 96.8%.

And the cell viability (Vero E6 [5]; 100 nM)?
The cell viability was 96.7%.

What about the cell viability (Vero E6 [5]; 1000 nM) of the same molecule?
The cell viability was 91.1%.

And the cell viability (Vero E6 [5]; 10000 nM)?
The cell viability was 106%.

And the “relative viability EC50” value (Caco-2 [6])?
Its value is greater than 10 µM.

What about the “relative viability EC50” value (Calu-3 [7]) of the same molecule?
The value was greater than 10 µM.

And the “relative viability EC50” value (HepG2 [8])?
The value was greater than 10 µM.

And the “relative viability EC50” value (U2OS [9])?
The value was greater than 10 µM.

And the “relative viability EC50” value (Vero E6 [10])?
The value was greater than 10 µM.

What about the drug sensitivity score (Caco-2 [11]) of the same molecule?
Its drug sensitivity score is 0.

And the drug sensitivity score (Calu-3 [12])?
The drug sensitivity score was 0.

And the drug sensitivity score (HepG2 [13])?
Its drug sensitivity score is 0.

And the drug sensitivity score (U2OS [14])?
Its drug sensitivity score is 0.

What about the drug sensitivity score (Vero E6 [15]) of the same molecule?
Its drug sensitivity score is 0.

With NC(=O)N/N=C/c1ccc([N+](=O)[O-])o1 [nitrofurazone] as the molecule, how does the cell viability (Caco-2 [1]; 1 nM) read?
Its cell viability is 93.8%.

And the cell viability (Caco-2 [1]; 10 nM)?
Its cell viability is 101%.

What about the cell viability (Caco-2 [1]; 100 nM) of the same molecule?
Its cell viability is 98.8%.

What about the cell viability (Caco-2 [1]; 1000 nM) of the same molecule?
The cell viability was 101%.

And the cell viability (Caco-2 [1]; 10000 nM)?
The cell viability was 87.2%.

What about the cell viability (Calu-3 [2]; 1 nM) of the same molecule?
The cell viability was 104%.

What about the cell viability (Calu-3 [2]; 10 nM) of the same molecule?
The cell viability was 96.9%.

And the cell viability (Calu-3 [2]; 100 nM)?
The cell viability was 105%.

And the cell viability (Calu-3 [2]; 1000 nM)?
The cell viability was 89%.

And the cell viability (Calu-3 [2]; 10000 nM)?
Its cell viability is 95.1%.

And the cell viability (HepG2 [3]; 1 nM)?
The cell viability was 92.5%.

What about the cell viability (HepG2 [3]; 10 nM) of the same molecule?
The cell viability was 101%.

And the cell viability (HepG2 [3]; 100 nM)?
Its cell viability is 110%.

What about the cell viability (HepG2 [3]; 1000 nM) of the same molecule?
Its cell viability is 108%.

What about the cell viability (HepG2 [3]; 10000 nM) of the same molecule?
The cell viability was 87.4%.

What about the cell viability (U2OS [4]; 1 nM) of the same molecule?
The cell viability was 101%.

What about the cell viability (U2OS [4]; 10 nM) of the same molecule?
Its cell viability is 98.1%.

And the cell viability (U2OS [4]; 100 nM)?
The cell viability was 103%.

And the cell viability (U2OS [4]; 1000 nM)?
Its cell viability is 100%.

And the cell viability (U2OS [4]; 10000 nM)?
Its cell viability is 103%.

And the cell viability (Vero E6 [5]; 1 nM)?
The cell viability was 96.8%.

And the cell viability (Vero E6 [5]; 10 nM)?
Its cell viability is 101%.

And the cell viability (Vero E6 [5]; 100 nM)?
Its cell viability is 95.1%.

What about the cell viability (Vero E6 [5]; 1000 nM) of the same molecule?
Its cell viability is 97.7%.

What about the cell viability (Vero E6 [5]; 10000 nM) of the same molecule?
The cell viability was 106%.

And the “relative viability EC50” value (Caco-2 [6])?
Its value is greater than 10 µM.

What about the “relative viability EC50” value (Calu-3 [7]) of the same molecule?
The value was greater than 10 µM.

And the “relative viability EC50” value (HepG2 [8])?
The value was greater than 10 µM.

What about the “relative viability EC50” value (U2OS [9]) of the same molecule?
The value was greater than 10 µM.

And the “relative viability EC50” value (Vero E6 [10])?
The value was greater than 10 µM.

What about the drug sensitivity score (Caco-2 [11]) of the same molecule?
Its drug sensitivity score is 0.1.

What about the drug sensitivity score (Calu-3 [12]) of the same molecule?
The drug sensitivity score was 0.2.

And the drug sensitivity score (HepG2 [13])?
Its drug sensitivity score is 0.

What about the drug sensitivity score (U2OS [14]) of the same molecule?
Its drug sensitivity score is 0.

What about the drug sensitivity score (Vero E6 [15]) of the same molecule?
Its drug sensitivity score is 0.
